Molecules are shown by their SMILES.

The data set can be described thus: Human HepG2 cell viability assay in 384 well format. In kind it is toxicity, cell-based. Further details: dose 125 nL, time 70.5 hour; concentration not given beside the values. The following applies: HepG2 cells, read-out: Inhibition.

`NCc1csc(CCc2ccccc2)n1`: the cytotoxicity at 70.5 h was -8.04%. Turning to `CC(c1cccc(O)c1)N(C)S(=O)(=O)c1cccnc1` (stereo not drawn), the cytotoxicity at 70.5 h is 4.03%. Under `CN(C)C(=O)c1cc(S(=O)(=O)N2CCCC2Cn2ccnc2)cn1C` (stereo not drawn) stands 2.99%; under `Cc1ccc(C(N)c2cccs2)cc1` (stereo not drawn), 31.8%. Take `COC(=O)c1ccc(CNC(=O)Nc2ccc(=O)n(C)c2)cc1`: the cytotoxicity at 70.5 h is -2.19%. As to `CN(Cc1ccsc1)C(=O)Nc1ccc(=O)n(C)c1`, the cytotoxicity at 70.5 h was -6.48%. As to `Cc1nn(C(C)C)c(C)c1S(=O)(=O)Nc1cccc(C(=O)O)c1`, the cytotoxicity at 70.5 h is -5.93%. On to `Cc1nn(C(C)C)c(C)c1S(=O)(=O)Nc1cccc(F)c1`, for which the cytotoxicity at 70.5 h is -0.473%. Consider `O=C(NS(=O)(=O)c1ccc2c(c1)CCC2)C1COCCO1` (stereo not drawn), for which the cytotoxicity at 70.5 h amounted to 26.8%. The same measure for `CSc1ccsc1C(=O)NC(C)c1ccc2c(c1)CCC(=O)N2` (stereo not drawn): 11.2%. Consider `CCCNC(=O)c1cc(Br)cc(S(=O)(=O)N2CCOCC2)c1F`, for which the cytotoxicity at 70.5 h is -0.419%. Turning to `Cn1cc(NC(=O)c2cccc(Cl)c2)c(=O)n(C)c1=O`, the cytotoxicity at 70.5 h came out at 24%.

As to `Cc1nn(C(C)C)c(C)c1S(=O)(=O)Nc1ccc(C(=O)O)cc1`, the cytotoxicity at 70.5 h was -1.04%. Consider `O=S(=O)(NCC1COCCO1)c1ccc(C2CCCCC2)cc1` (stereo not drawn), for which the cytotoxicity at 70.5 h was -4.34%.

As for `CCn1cc(S(=O)(=O)NC(CO)Cc2ccccc2)cn1` (stereo not drawn), the cytotoxicity at 70.5 h was -7.27%. On to `O=S1(=O)CCC(n2cc(CNc3ccccc3Br)cn2)C1` (stereo not drawn), for which the cytotoxicity at 70.5 h came out at 31.4%. As to `Cc1cc2cc(CNC3CCN(CC(=O)N(C)C)CC3)oc2cc1C`, the cytotoxicity at 70.5 h is -3.5%. As to `OC(COCc1ccccc1)CSc1nnc(C2CC2)n1C1CC1` (stereo not drawn), the cytotoxicity at 70.5 h amounted to 0.33%. Under `CC(C)c1ccc(C(N)c2cccs2)cc1` (stereo not drawn) stands -5.3%; under `Cc1cc(F)ccc1-n1cc(O)c(C(=O)NCC[S+](C)[O-])n1` (stereo not drawn), 8.16%; under `CC(C)(C)n1nc(C2CC2)cc1C(=O)NC1CCN(CC(N)=O)CC1`, -12.3%. The same measure for `Cc1cc(C(=O)NC2CCN(CC(N)=O)CC2)nn1C(C)(C)C`: -18.9%; for `CC(C)c1cc(C(=O)NC2CCN(CC(N)=O)CC2)nn1C(C)(C)C`: -10.3%.

As to `CC(CC(=O)NCCNS(C)(=O)=O)C1CCCCC1` (stereo not drawn), the cytotoxicity at 70.5 h was -13.2%.

On to `Cc1ccc(C(=O)N2CCCN(C)c3ccc(F)cc32)o1`, for which the cytotoxicity at 70.5 h is -17.9%. The same measure for `Cc1cc(NC(=O)C2CCCN(C(=O)NCC(C)C)C2)ccn1` (stereo not drawn): -14.5%. For the molecule `Cc1cc(F)ccc1-n1cc(O)c(C(N)=O)n1`, the cytotoxicity at 70.5 h was -19%. The same measure for `CCNC(=O)CNC(=O)Nc1c(F)cc(F)cc1-c1ccccc1`: -9.19%; for `CSCC(C)N(C)C(=O)c1nn(-c2ccc(F)cc2C)cc1O` (stereo not drawn): -10.1%; for `Cc1ccc(C)c(OC2CCN(C(=O)CNc3ccccc3Cl)CC2)c1`: 24.6%. With `CNC(=O)C1CCC(NC(=O)c2cc(C3CC3)n(C(C)(C)C)n2)CC1` (stereo not drawn), the cytotoxicity at 70.5 h was -6.36%.

For `CN1CCN(C(=O)c2cnsn2)c2ccc(F)cc21`, the cytotoxicity at 70.5 h was -10.4%. `Cn1cc(C(O)CNC(=O)c2cc(Br)ccc2Cl)cn1` (stereo not drawn): the cytotoxicity at 70.5 h is -14.2%. On to `c1cnc2nc(N3CCCC3c3nnc4n3CCCCC4)ccc2n1` (stereo not drawn), for which the cytotoxicity at 70.5 h is -4.33%. As for `CC(Nc1cccc(COCc2ccco2)c1)C(=O)NC(N)=O` (stereo not drawn), the cytotoxicity at 70.5 h was -23%. On to `COc1ccc(Cn2ccnc2)cc1F`, for which the cytotoxicity at 70.5 h is -10.7%. As for `CCC(=O)N(CCN(C)C)Cc1ccc(F)c(F)c1`, the cytotoxicity at 70.5 h was -13.7%.

Take `Cc1nc2ccccc2nc1NCc1cccc(OCC2CCCO2)c1` (stereo not drawn): the cytotoxicity at 70.5 h is 0.538%. For the molecule `CN(C)C(=O)Cn1cc(C(=O)N2CCCc3cccc(F)c32)nn1`, the cytotoxicity at 70.5 h is -17.3%. As to `COc1ccccc1C1(CNc2ccnc(C(=O)N(C)C)c2)CC1`, the cytotoxicity at 70.5 h worked out at 33.4%. The same measure for `COc1ncnc(N)c1CNCC(C)SC` (stereo not drawn): 34.8%; for `COc1ccccc1C1(CNc2cc(C(=O)N(C)C)ccn2)CC1`: 0.399%. With `CCCc1cc(N2CCCC2Cn2cc(C)cn2)n2ncnc2n1` (stereo not drawn), the cytotoxicity at 70.5 h is -8.77%. Turning to `COCc1nc(CNC2CCCc3c2cnn3C(C)(C)C)cs1` (stereo not drawn), the cytotoxicity at 70.5 h was -6.43%. Regarding `CC1CCN(C)c2ccccc2N1C(=O)c1ccc(=O)n(C)n1` (stereo not drawn), the cytotoxicity at 70.5 h is -5.36%. As to `COC(=O)c1ccc(N2CCC(C(O)c3ccccc3)CC2)nn1` (stereo not drawn), the cytotoxicity at 70.5 h is -4.29%. As for `O=S(=O)(c1ccc2c(c1)OCCO2)N1CCC(OCc2ccccn2)C1` (stereo not drawn), the cytotoxicity at 70.5 h is -8.08%. Turning to `O=S(=O)(c1ccc(C(F)(F)F)cc1)N1CCC(OCc2ccccn2)C1` (stereo not drawn), the cytotoxicity at 70.5 h came to 1.24%.

In the case of `CC1CCN(C)c2ccccc2N1C(=O)c1ccc(=O)n(C)c1` (stereo not drawn), the cytotoxicity at 70.5 h was -6.14%. For `CCC(C)(COc1ncccc1Cl)NCC(=O)NC1CCCCC1` (stereo not drawn), the cytotoxicity at 70.5 h was -14.9%. On to `CCC1C(=O)NCCN1c1ccnc(C(C)(C)C)n1` (stereo not drawn), for which the cytotoxicity at 70.5 h is -23.9%. Take `CCC1C(=O)NCCN1c1cc(C)ncn1` (stereo not drawn): the cytotoxicity at 70.5 h is -22.8%. Take `CN(CCc1ccccn1)C(=O)C(O)c1ccc(Br)cc1` (stereo not drawn): the cytotoxicity at 70.5 h is -4.38%. Take `Cc1nc(NC(=O)NC(CS(C)(=O)=O)c2ccccc2)sc1C` (stereo not drawn): the cytotoxicity at 70.5 h was -11.5%. On to `CC(C)c1nsc(N2CCCOCC2)n1`, for which the cytotoxicity at 70.5 h worked out at 37.7%. As to `O=C(CN(CC(O)c1ccc(F)cc1)C1CC1)Nc1cccnc1` (stereo not drawn), the cytotoxicity at 70.5 h was -24.7%. `CCNc1nc(C)c(C(=O)N(C)Cc2nc(CC)no2)s1`: the cytotoxicity at 70.5 h was -34.8%. For `CC(C)n1cnnc1C1CCCN(S(=O)(=O)CCCC#N)C1` (stereo not drawn), the cytotoxicity at 70.5 h is -35.2%. Take `COc1cccc(CN(C)C(=O)c2ccc(NC(C)=O)s2)c1OC`: the cytotoxicity at 70.5 h is -62.7%. Under `CC(=O)Nc1ccc(C(=O)N(C)Cc2ccc(F)cc2F)s1` stands -61.6%. For the molecule `COCC(O)CN(C)C(=O)NCc1ccc(S(C)(=O)=O)cc1` (stereo not drawn), the cytotoxicity at 70.5 h is -106%. As to `CCS(=O)(=O)NC(CCSC)C(=O)Nc1ccc(C)cc1C` (stereo not drawn), the cytotoxicity at 70.5 h is -88.5%. Under `CC(C)(C)C(NCC(=O)N1CCNC(=O)C1)c1ccccc1` (stereo not drawn) stands -107%.

For the molecule `CCS(=O)(=O)NC(CCSC)C(=O)Nc1cccc(C)c1C` (stereo not drawn), the cytotoxicity at 70.5 h was -83.4%. In the case of `CNS(=O)(=O)c1ccc(CNC(=O)N(C)CC(C)C)cc1`, the cytotoxicity at 70.5 h was -94.7%. As for `Cc1cc(N2CCc3c(ncn3C)C2)n2nc(C(F)(F)F)nc2n1`, the cytotoxicity at 70.5 h was -105%. Regarding `Cc1noc(CS(=O)(=O)C(C)C(=O)N(C)c2ccccc2)n1` (stereo not drawn), the cytotoxicity at 70.5 h is -23.3%. As for `CS(=O)(=O)CCCN(CCCO)C1CCc2ccccc21` (stereo not drawn), the cytotoxicity at 70.5 h was -107%. Consider `Cn1ncnc1CNc1ccccc1C(=O)NC(C)(C)C`, for which the cytotoxicity at 70.5 h is -100%.

In the case of `CS(=O)(=O)Cc1noc(CN2CCc3c(Cl)cccc3C2)n1`, the cytotoxicity at 70.5 h is -79.4%. The same measure for `CNC(=O)c1ccc(OC)c(NCc2ncc(-c3cccs3)o2)c1`: -92.5%.

As to `CCc1nn(C)c2[nH]nc(NC(=O)c3cccnc3OCC(C)C)c12`, the cytotoxicity at 70.5 h was -90.4%. Under `Cc1ccc(NC(=O)c2ncc(C(N)=O)cc2Cl)cc1F` stands -87.6%. Under `CC(C)c1ccc(NC(=O)c2ncc(C(N)=O)cc2Cl)cc1` stands -86.1%; under `CCS(=O)(=O)NC(CCSC)C(=O)Nc1ccccc1C` (stereo not drawn), -92%; under `CC(C)n1cnnc1C1CCCN(S(=O)(=O)CC2CCCC2)C1` (stereo not drawn), -106%.

Take `CC(NCC(N)=O)c1c(F)cccc1Cl` (stereo not drawn): the cytotoxicity at 70.5 h was -85.6%. The same measure for `CC(=O)Nc1ccc(C(=O)N(C)Cc2cccc(F)c2)s1`: -105%; for `CCc1nn(C)c2[nH]nc(NC(=O)c3ccccc3COC)c12`: -101%; for `Cc1cc(CNC(C)Cn2cncn2)ccc1Br` (stereo not drawn): -87.4%. For `CC(=O)N1CCC(C(=O)NC2CCc3nccn3C2)CC1` (stereo not drawn), the cytotoxicity at 70.5 h is -97.6%. Under `CNS(=O)(=O)c1ccc(CNC(=O)N(C)CC(O)COC)cc1` (stereo not drawn) stands -74.7%; under `CS(=O)(=O)NCCN(CCCO)C1CCc2ccccc21` (stereo not drawn), -97.1%; under `Cc1cc(CNc2ccccc2N2CCCCC2)no1`, -24%. Under `CN1CCN(c2ccc(Cl)cc2NC(=O)c2ccco2)CC1` stands 12.6%; under `COc1ccc(CSc2nnc(N)n2C2CC2)cc1F`, 24.8%; under `COc1ccc(C)cc1NS(=O)(=O)c1ccc(CCNC(C)=O)s1`, -4.06%. Under `CC(=O)NCCc1ccc(S(=O)(=O)Nc2ccc(C)cc2F)s1` stands -2.14%; under `CN(CCCNC(=O)C1CCCN(C(N)=O)C1)S(C)(=O)=O` (stereo not drawn), -9.57%; under `COCCN1CCN(CC(O)c2ccc(C(F)(F)F)cc2)CC1` (stereo not drawn), -7.3%. In the case of `CCOCCN1CCN(CC(O)c2ccc(C(F)(F)F)cc2)CC1` (stereo not drawn), the cytotoxicity at 70.5 h is -0.521%.

For `CC(CO)NC(=O)c1ccc(NCc2ccccc2)cc1` (stereo not drawn), the cytotoxicity at 70.5 h is -7%. `CCC(NC(=O)CCCNC(=O)OC)c1cc(F)ccc1F` (stereo not drawn): the cytotoxicity at 70.5 h was -3.13%. `CN1CCN(c2ccccc2NC(=O)NCCc2ccccc2)CC1`: the cytotoxicity at 70.5 h is -5.11%.

For `CCC(NC(=O)CNCC(F)(F)F)c1cc(F)ccc1F` (stereo not drawn), the cytotoxicity at 70.5 h is -6.5%. Take `CCC(NC(=O)NCC(=O)NC(C)C)c1cc(F)ccc1F` (stereo not drawn): the cytotoxicity at 70.5 h was -3.83%. On to `CC(C)c1ncc(Cl)c(C(=O)N2CCN3CCCCC3C2)n1` (stereo not drawn), for which the cytotoxicity at 70.5 h was determined as 36.2%. Take `CCCOc1cc(F)ccc1NC(=O)NCc1noc(C)n1`: the cytotoxicity at 70.5 h is -3.88%.

As to `CN1CCN(c2ccccc2NC(=O)NCCc2ccc(O)cc2)CC1`, the cytotoxicity at 70.5 h was -6.51%. For `CC(C)c1ncc(Cl)c(C(=O)N2CCCN3CCCC3C2)n1` (stereo not drawn), the cytotoxicity at 70.5 h is -0.691%. With `COCCOCC(=O)Nc1ccnn1-c1ccc(Cl)cc1`, the cytotoxicity at 70.5 h is -0.967%. With `CCC(C)(C)NC(=O)Cn1nnc(CN(C)C(=O)c2ccccc2)n1`, the cytotoxicity at 70.5 h is -3.46%. Consider `O=C(CN(CC1CCC1)CC(F)(F)F)N1CCCC1`, for which the cytotoxicity at 70.5 h is -6.18%.

The record behind these values is ChEMBL document CHEMBL3507680, “University of Dundee, Gates Library screen for HepG2 cell viability”.
